One may read the IC50 as the concentration at which inhibition is half-maximal.

This note sets out measurements from patent US8889712B2, “IAP antagonists” (Bristol-Myers Squibb Company, priority 2012, dated 2014).

One assay has as its target T1, XIAP BIR3 (Homo sapiens, UniProt P98170).
T1 construct: His-BIR3 (241-356, XIAP)
Kind of assay: XIAP-BIR3/SMAC Homogeneous Time Resolved Fluorescence (HTRF) Assay. It counts as binding. In outline: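 Competition HTRF between XIAP-BIR3 and SMAC; reaction 60 min at room temperature, then anti-6×His-terbium Fab detection for a further 30 min.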
Background: In TR-FRET formats the signal depends on donor and acceptor labels being close together.

The target of a further assay is T2, XIAP BIR2-3 (Homo sapiens, UniProt P98170, C202A/C213G).
T2 construct: His-BIR2-3 (125-356, C202A/C213G, XIAP)
T2 sequence (P98170 125-356 C202A/C213G): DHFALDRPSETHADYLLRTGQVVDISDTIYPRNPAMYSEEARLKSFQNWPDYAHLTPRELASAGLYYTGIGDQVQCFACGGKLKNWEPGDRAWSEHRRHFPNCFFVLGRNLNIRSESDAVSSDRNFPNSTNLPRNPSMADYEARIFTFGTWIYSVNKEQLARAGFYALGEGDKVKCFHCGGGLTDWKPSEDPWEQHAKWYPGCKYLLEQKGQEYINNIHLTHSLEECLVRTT
Kind of assay: XIAP-BIR2-3 dimeric SMAC Peptide Homogeneous Time Resolved Fluorescence (HTRF) Assay. It is filed as binding. The method, then: B. […] Assays were performed in black, flat-bottom, 384-well plates. […] Compounds were dissolved at 3 mM in dimethylsulfoxide (DMSO) and evaluated at eleven serially diluted concentrations. IC50 and Ki values were derived by non-linear regression analysis.

[1] abbreviates: 1 nM N-His-BIR3 (241-356, XIAP), 5 nM fluorescein labeled SMAC peptide, HTRF signal, read-out: XIAP BIR3 IC50.
[2] abbreviates: 0.5 nM N-His-BIR2-3 (125-356, C202A/C213G, XIAP), 20 nM fluorescein labeled dimeric SMAC peptide, HTRF signal, read-out: XIAP BIR2-3 IC50.

Like-named read-outs stand apart in the source and are kept apart here.

T1 sequence (P98170 241-356): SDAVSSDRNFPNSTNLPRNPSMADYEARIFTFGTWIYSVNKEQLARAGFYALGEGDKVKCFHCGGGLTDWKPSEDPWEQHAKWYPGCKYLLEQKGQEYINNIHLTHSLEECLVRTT

For `CN[C@@H](C)C(=O)N[C@H](C(=O)N1C[C@@H](c2ccc3c(c2)CN(C(=O)[C@@H](NC(=O)[C@H](C)NC)C(C)(C)C)[C@H](C(=O)N[C@@H]2CCCc4ccccc42)C3)C[C@H]1C(=O)N[C@@H](Cc1ccccc1)C(=O)Nc1ccccc1)C(C)(C)C` [Example 68, (S)-2-((S)-3,3-Dimethyl-2-((S)-2-(methylamino)propanamido)butanoyl)-7-((3R,5S)-1-((S)-3,3-dimethyl-2-((S)-2-(methylamino)propanamido)butanoyl)-5-(((S)-1-oxo-3-phenyl-1-(phenylamino)propan-2-yl)carbamoyl)pyrrolidin-3-yl)-N-((R)-1,2,3,4-tetrahydronaphthalen-1-yl)-1,2,3,4-tetrahydroisoquinoline-3-carboxamide], the IC50 against XIAP BIR3 was found to be 4.9 nM; on XIAP BIR2-3, 1.3 nM.

With `CN[C@@H](C)C(=O)N[C@H](C(=O)N1C[C@@H](c2ccc3c(c2)CN(C(=O)[C@@H](NC(=O)[C@H](C)NC)C(C)(C)C)[C@H](C(=O)N[C@@H]2CCCc4ccccc42)C3)C[C@H]1C(=O)N[C@@H](Cc1ccccc1)C(=O)NCCC(C)C)C(C)(C)C` [Example 69, (S)-2-((S)-3,3-Dimethyl-2-((S)-2-(methylamino)propanamido)butanoyl)-7-((3R,5S)-1-((S)-3,3-dimethyl-2-((S)-2-(methylamino)propanamido)butanoyl)-5-(((S)-1-(isopentylamino)-1-oxo-3-phenylpropan-2-yl)carbamoyl)pyrrolidin-3-yl)-N-((R)-1,2,3,4-tetrahydronaphthalen-1-yl)-1,2,3,4-tetrahydroisoquinoline-3-carboxamide], the results for the IC50 at XIAP BIR3 (setting [1]) and on XIAP BIR2-3 (setting [2]) were 8.6 nM and 1.5 nM, respectively.

As for `CN[C@@H](C)C(=O)N[C@H](C(=O)N1C[C@@H](c2ccc3c(c2)CN(C(=O)[C@@H](NC(=O)[C@H](C)NC)C(C)(C)C)[C@H](C(=O)N[C@@H]2CCCc4ccccc42)C3)C[C@H]1C(=O)N[C@H](COC)Cc1ccccc1)C(C)(C)C` [Example 75, (S)-2-((S)-3,3-Dimethyl-2-((S)-2-(methylamino)propanamido)butanoyl)-7-((3R,5S)-1-((S)-3,3-dimethyl-2-((S)-2-(methylamino)propanamido)butanoyl)-5-(((S)-1-methoxy-3-phenylpropan-2-yl)carbamoyl)pyrrolidin-3-yl)-N-((R)-1,2,3,4-tetrahydronaphthalen-1-yl)-1,2,3,4-tetrahydroisoquinoline-3-carboxamide], the IC50 at XIAP BIR3 (setting [1]) worked out at 14.5 nM; at XIAP BIR2-3 (setting [2]), 3 nM.

Regarding `CN[C@@H](C)C(=O)N[C@H](C(=O)N1C[C@@H](c2ccc3c(c2)CN(C(=O)[C@@H](NC(=O)[C@H](C)NC)C(C)(C)C)[C@H](C(=O)N[C@@H]2CCCc4ccccc42)C3)C[C@H]1C(=O)N[C@@H](Cc1ccccc1)C(=O)OC)C(C)(C)C` [Example 76, (S)-Methyl 2-((2S,4R)-1-((S)-3,3-dimethyl-2-((S)-2-(methylamino)propanamido)butanoyl)-4-((S)-2-((S)-3,3-dimethyl-2-((S)-2-(methylamino)propanamido)butanoyl)-3-(((R)-1,2,3,4-tetrahydronaphthalen-1-yl)carbamoyl)-1,2,3,4-tetrahydroisoquinolin-7-yl)pyrrolidine-2-carboxamido)-3-phenylpropanoate], the concentration for half-maximal inhibition (IC50) against XIAP BIR3 turned out to be 18.9 nM; against XIAP BIR2-3, 2.5 nM.

On to `CN[C@@H](C)C(=O)N[C@H](C(=O)N1C[C@@H](c2ccc3c(c2)CN(C(=O)[C@@H](NC(=O)[C@H](C)NC)C(C)(C)C)[C@H](C(=O)N[C@@H]2CCCc4ccccc42)C3)C[C@H]1C(=O)N[C@@H](Cc1ccccc1)C(=O)O)C(C)(C)C` [Example 77, (S)-2-((2S,4R)-1-((S)-3,3-Dimethyl-2-((S)-2-(methylamino)propanamido)butanoyl)-4-((S)-2-((S)-3,3-dimethyl-2-((S)-2-(methylamino)propanamido)butanoyl)-3-(((R)-1,2,3,4-tetrahydronaphthalen-1-yl)carbamoyl)-1,2,3,4-tetrahydroisoquinolin-7-yl)pyrrolidine-2-carboxamido)-3-phenylpropanoic acid], for which the IC50 amounted to 1.7 nM at XIAP BIR3 (setting [1]) and 0.8 nM at XIAP BIR2-3 (setting [2]).

For `CN[C@@H](C)C(=O)N[C@H](C(=O)N1C[C@@H](c2ccc3c(c2)CN(C(=O)[C@@H](NC(=O)[C@H](C)NC)C(C)(C)C)[C@H](C(=O)N[C@@H]2CCCc4ccccc42)C3)C[C@H]1C(=O)N[C@@H](Cc1ccccc1)c1nnn[nH]1)C(C)(C)C` [Example 78, (S)-2-((S)-3,3-Dimethyl-2-((S)-2-(methylamino)propanamido)butanoyl)-7-((3R,5S)-1-((S)-3,3-dimethyl-2-((S)-2-(methylamino)propanamido)butanoyl)-5-(((S)-2-phenyl-1-(1H-tetrazol-5-yl)ethyl)carbamoyl)pyrrolidin-3-yl)-N—((R)-1,2,3,4-tetrahydronaphthalen-1-yl)-1,2,3,4-tetrahydroisoquinoline-3-carboxamide], the figures for the IC50 on XIAP BIR3 (setting [1]) and on XIAP BIR2-3 (setting [2]) were 8.9 nM and 2.8 nM, respectively.

On to `CN[C@@H](C)C(=O)N[C@H](C(=O)N1C[C@@H](c2ccc3c(c2)CN(C(=O)[C@@H](NC(=O)[C@H](C)NC)C(C)(C)C)[C@H](C(=O)N[C@@H]2CCCc4ccccc42)C3)C[C@H]1C(=O)N[C@@H](Cc1ccccc1)c1nnc(C)o1)C(C)(C)C` [Example 79, (S)-2-((S)-3,3-Dimethyl-2-((S)-2-(methylamino)propanamido)butanoyl)-7-((3R,5S)-1-((S)-3,3-dimethyl-2-((S)-2-(methylamino)propanamido)butanoyl)-5-(((S)-1-(5-methyl-1,3,4-oxadiazol-2-yl)-2-phenylethyl)carbamoyl)pyrrolidin-3-yl)-N—((R)-1,2,3,4-tetrahydronaphthalen-1-yl)-1,2,3,4-tetrahydroisoquinoline-3-carboxamide], for which the values for the IC50 on XIAP BIR3 (setting [1]) and at XIAP BIR2-3 (setting [2]) were 16.7 nM and 3.4 nM, respectively.

`CN[C@@H](C)C(=O)N[C@H](C(=O)N1C[C@@H](c2ccc3c(c2)CN(C(=O)[C@@H](NC(=O)[C@H](C)NC)C(C)(C)C)[C@H](C(=O)N[C@@H]2CCCc4ccccc42)C3)C[C@H]1C(=O)N[C@@H](Cc1ccccc1)c1noc(C)n1)C(C)(C)C` [Example 80, (S)-2-((S)-3,3-Dimethyl-2-((S)-2-(methylamino)propanamido)butanoyl)-7-((3R,5S)-1-((S)-3,3-dimethyl-2-((S)-2-(methylamino)propanamido)butanoyl)-5-(((S)-1-(5-methyl-1,2,4-oxadiazol-3-yl)-2-phenylethyl)carbamoyl)pyrrolidin-3-yl)-N—((R)-1,2,3,4-tetrahydronaphthalen-1-yl)-1,2,3,4-tetrahydroisoquinoline-3-carboxamide]: the IC50 at XIAP BIR3 (setting [1]) was 7.3 nM; at XIAP BIR2-3 (setting [2]), 2.6 nM.

Take `CN[C@@H](C)C(=O)N[C@H](C(=O)N1C[C@@H](c2ccc3c(c2)CN(C(=O)[C@@H](NC(=O)[C@H](C)NC)C(C)(C)C)[C@H](C(=O)N[C@@H]2CCCc4ccccc42)C3)C[C@H]1C(=O)N[C@@H](Cc1ccccc1)c1ncc(C)o1)C(C)(C)C` [Example 81, (S)-2-((S)-3,3-Dimethyl-2-((S)-2-(methylamino)propanamido)butanoyl)-7-((3R,5S)-1-((S)-3,3-dimethyl-2-((S)-2-(methylamino)propanamido)butanoyl)-5-(((S)-1-(5-methyloxazol-2-yl)-2-phenylethyl)carbamoyl)pyrrolidin-3-yl)-N—((R)-1,2,3,4-tetrahydronaphthalen-1-yl)-1,2,3,4-tetrahydroisoquinoline-3-carboxamide]: the IC50 is 13.5 nM at XIAP BIR3 (setting [1]) and 2.6 nM on XIAP BIR2-3 (setting [2]).

On to `CN[C@@H](C)C(=O)N[C@H](C(=O)N1Cc2cc([C@H]3C[C@@H](C(=O)N[C@@H](Cc4ccc5ccccc5c4)C(=O)OC)N(C(=O)[C@@H](NC(=O)[C@H](C)NC)C(C)(C)C)C3)ccc2C[C@H]1C(=O)N[C@@H](Cc1ccc2ccccc2c1)C(=O)OC)C(C)(C)C` [Example 82, (S)-Methyl 2-((2S,4R)-1-((S)-3,3-dimethyl-2-((S)-2-(methylamino)propanamido)butanoyl)-4-((S)-2-((S)-3,3-dimethyl-2-((S)-2-(methylamino)propanamido)butanoyl)-3-(((S)-1-methoxy-3-(naphthalen-2-yl)-1-oxopropan-2-yl)carbamoyl)-1,2,3,4-tetrahydroisoquinolin-7-yl)pyrrolidine-2-carboxamido)-3-(naphthalen-2-yl)propanoate], for which the IC50 at XIAP BIR3 (setting [1]) worked out at 111 nM; at XIAP BIR2-3 (setting [2]) it was 68.2 nM.

On to `CN[C@@H](C)C(=O)N[C@H](C(=O)N1Cc2cc([C@H]3C[C@@H](C(=O)N[C@@H](Cc4ccc5ccccc5c4)C(=O)O)N(C(=O)[C@@H](NC(=O)[C@H](C)NC)C(C)(C)C)C3)ccc2C[C@H]1C(=O)N[C@@H](Cc1ccc2ccccc2c1)C(=O)O)C(C)(C)C` [Example 83, (S)-2-((S)-7-((3R,5S)-5-(((S)-1-Carboxy-2-(naphthalen-2-yl)ethyl)carbamoyl)-1-((S)-3,3-dimethyl-2-((S)-2-(methylamino)propanamido)butanoyl)pyrrolidin-3-yl)-2-((S)-3,3-dimethyl-2-((S)-2-(methylamino)propanamido)butanoyl)-1,2,3,4-tetrahydroisoquinoline-3-carboxamido)-3-(naphthalen-2-yl)propanoic acid], for which the figures for the IC50 on XIAP BIR3 (setting [1]) and at XIAP BIR2-3 (setting [2]) were 19.2 nM and 26.2 nM, respectively.
